The values below come from publication PMC12606047, “Targeting the Liquid–Liquid Separation Region of c‐Maf for Treating Chromosomal Translocations in Multiple Myeloma” (MedComm, 2025).

Assay [1] relates to 5TMM3VT mouse myeloma cells. Kind of assay: 5TMM3VT mouse model. The note with it: single treatment; BBA 5 mg/kg, BTZ 1 mg/kg. The format is in vivo, C57BL/KaLwRij mice. As for the experimental part: 5TMM3VT mouse myeloma cells (1 × 10^6) were injected through the tail vein into C57BL/KaLwRij mice from Harlan Laboratories (n = 9 per group). The mice were randomly divided into four groups (Ctrl, BBA, BTZ and BBA+BTZ combination groups). On the third day after modeling, oral administration of PBS, BBA (5 mg/kg) and BTZ (1 mg/kg) was performed twice a week, while combination therapy was administered every other day.

For another assay, the system named is MM PDX tumor. Kind of assay: MM patient-derived tumor xenograft (PDX) model. Type of assay: in vivo, NOD/SCID mice. The note with it: IHC and IF, single treatment. As for the experimental part:
The biopsy sample was taken from tumor tissue excised from MM patient at Nanjing Hospital of Chinese Medicine affiliated with Nanjing University of Chinese Medicine. The tissue was then cut into 2.5×2.5×2.5 mm^3 pieces and transplanted subcutaneously into 6-week-old NOD/SCID male mice (n = 6 mice in each group) under anesthesia with 1% sodium pentobarbital. […] This process was repeated three times to ensure stable tumor growth. […] Single treatment was administered every three days, while combination treatment was administered every other day.

The subject of another assay is ARP1 cells. Kind of assay: MTT proliferation assay, ARP1 cells. Type of assay: cell-based, human. The note with it: ARP1 WT; Table 2 prints no cell line, its BBA value equals the ARP1 IC50 of b29.
Assay [2] addresses T1, c-Maf protein (Homo sapiens, UniProt O75444).
T1 construct: made in house; host or cells: prokaryotic (pET-28a vector)
T1 sequence (O75444 1-373): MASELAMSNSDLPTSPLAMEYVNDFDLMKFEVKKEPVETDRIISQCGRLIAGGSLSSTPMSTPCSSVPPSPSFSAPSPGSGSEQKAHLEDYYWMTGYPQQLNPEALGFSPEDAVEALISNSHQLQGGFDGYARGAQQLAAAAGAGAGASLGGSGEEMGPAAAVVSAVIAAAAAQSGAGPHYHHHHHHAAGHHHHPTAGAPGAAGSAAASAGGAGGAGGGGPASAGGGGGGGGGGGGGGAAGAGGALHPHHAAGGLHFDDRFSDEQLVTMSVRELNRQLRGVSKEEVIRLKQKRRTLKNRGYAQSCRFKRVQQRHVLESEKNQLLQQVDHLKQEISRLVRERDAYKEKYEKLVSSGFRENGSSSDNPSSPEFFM
In words: Microscale thermophoresis (MST) binding to c-Maf protein. The note with it: labelled purified c-Maf protein; read-out: MST dissociation constant (Kd). As to the method: To determine if the screened compound interacts with the c-Maf protein, we used a MonolithTM RED-NHS second generation protein labelling kit (NanoTemper Germany) to fluorescently label 10 µM of purified c-Maf protein. We then mixed various concentrations of the drug with an equal concentration of c-Maf protein and incubated the mixture for 5 min at room temperature. The mixture was then aspirated with a capillary tube and the binding capacity was measured using a new generation biomolecular interaction assay (NanoTemper Germany). The Kd values were calculated using analytical software.

Assay [3] has as its target T1, c-Maf protein. Kind of assay: Surface plasmon resonance (SPR) binding to c-Maf protein. The note with it: values given in mM; read-out: SPR dissociation constant (Kd).

As to `CC(C)C[C@H](NC(=O)[C@H](Cc1ccccc1)NC(=O)c1cnccn1)B(O)O` [BTZ, bortezomib], the “Survival time of 5TMM3VT mice” value in assay [1] is “significantly improved”. For the same compound, the “Expression of c-Maf, Ki67, RNA Pol II, Mtbp, c-Myc and c-Maf/RNA Pol II co-localization in tumors” value with MM PDX tumor is “inhibited”.
With Chlorophenylacetamide, the “MTT IC50” value in the assay with ARP1 cells is on record as “Unstable”. The Kd at c-Maf protein [2] was determined as 0.555 mM; at c-Maf protein [3], 3.31 mM.
